Measurements: US8501722B2, “Methods and compositions for treating bacterial infection” (priority 2009, dated 2013)
Several values for one entry are separate records, joined by “and”; a condition that tells them apart may be missing. Equal values may be shown once. Read-outs that look alike come from different tables or passages of the source.

Tests used:
SK(+)GAS = experiment: GAS growth by OD600 nm of culture; assay type: cell-based, Group A Streptococcus; settings: for activity at 0.1 µg/mL / activity at 0.3 µg/mL / activity at 2.5 µg/mL / activity at 5 µg/mL / activity at 20 µg/mL / activity at 40 µg/mL / activity at 70 µg/mL / activity at 10 µg/mL / activity at 30 µg/mL / activity at 50 µg/mL / activity at 60 µg/mL: Streptococcus; for activity at 0.1 µg/mL: read-out: GAS Growth (% control), compound conc. 0.1 μg/ml; for activity at 0.3 µg/mL: read-out: GAS Growth (% control), compound conc. 0.3 μg/ml; for activity at 2.5 µg/mL: read-out: GAS Growth (% control), compound conc. 2.5 μg/ml; for activity at 5 µg/mL: read-out: GAS Growth (% control), compound conc. 5 μg/ml; for activity at 20 µg/mL: read-out: GAS Growth (% control), compound conc. 20 μg/ml; for activity at 40 µg/mL: read-out: GAS Growth (% control), compound conc. 40 μg/ml; for activity at 70 µg/mL: read-out: GAS Growth (% control), compound conc. 70 μg/ml; for activity at 10 µg/mL: read-out: GAS Growth (% control), compound conc. 10 μg/ml; for activity at 30 µg/mL: read-out: GAS Growth (% control), compound conc. 30 μg/ml; for activity at 50 µg/mL: read-out: GAS Growth (% control), compound conc. 50 μg/ml; for activity at 60 µg/mL: read-out: GAS Growth (% control), compound conc. 60 μg/ml

Description for streptokinase (SK): SK− Ecoli and SKCtr1's dose response relationship with these compounds were then examined.
The effects of 10 hit compounds out of the 23 identified were further tested by dose response assays. […] These compounds were tested for inhibition of ska expression by measuring SK activity in supernatants of GAS exposed to the test compound or control vehicle alone (DMSO). SK(+)GAS were cultured with hit compounds at a dose range of 10 nM to 100 μM at 37° C. for 16-20 hours. Supernatants of SK(+)GAS cultures were measured for SK activity using chromogenic substrate 2403 (Diapharma group Inc., West Chester, Ohio), according to the manufacturer's instruction and simultaneously monitored for nonspecific effects on GAS growth by measuring OD600 nm.
The positive compounds identified in dose response assays are subjected to SK assay to identify compounds inhibiting SK expression in SK(+)GAS. Briefly, SK(+)GAS is grown at the presence of hit compounds at a dose range determined by dose response assays within which SK(−) GAS growth is inhibited less than 10% while SKKanGAS growth is inhibited more than 50% under 20 μg/ml kanamycin.

SMILES | activity at 0.1 µg/mL (SK(+)GAS) | activity at 0.3 µg/mL (SK(+)GAS) | activity at 2.5 µg/mL (SK(+)GAS) | activity at 5 µg/mL (SK(+)GAS) | activity at 20 µg/mL (SK(+)GAS) | activity at 40 µg/mL (SK(+)GAS) | activity at 70 µg/mL (SK(+)GAS) | SK Expression (% control) (streptokinase (SK); compound conc. 0.1 μg/ml) | SK Expression (% control) (streptokinase (SK); compound conc. 0.3 μg/ml) | SK Expression (% control) (streptokinase (SK); compound conc. 1.0 μg/ml) | SK Expression (% control) (streptokinase (SK); compound conc. 3 μg/ml) | SK Expression (% control) (streptokinase (SK); compound conc. 10 μg/ml) | SK Expression (% control) (streptokinase (SK); compound conc. 30 μg/ml) | SK Expression (% control) (streptokinase (SK); compound conc. 60 μg/ml) | activity at 10 µg/mL (SK(+)GAS) | SK Expression (% control) (streptokinase (SK); compound conc. 5 μg/ml) | SK Expression (% control) (streptokinase (SK); compound conc. 20 μg/ml) | SK Expression (% control) (streptokinase (SK); compound conc. 40 μg/ml) | also measured
C=CCn1c(SCc2ccccn2)nc2c(c1=O)C(C)(C)Cc1ccccc1-2 [CCG-203039, 3-Allyl-5,5-dimethyl-2-(pyridin-2-ylmethylthio)-5,6-dihydrobenzo[h]quinazolin-4(3H)-one] | 100% | 100% | 104% | 100% | 104% | 115% | 135% | 94 % control | 95 % control | 93 % control | 58 % control | 49 % control | 35 % control | 27 % control | – | – | – | – | –
C=CCn1c(NCC)nc2c(c1=O)C1(CCCCC1)Cc1ccccc1-2 [CCG-203043, 3-allyl-2-(ethylamino)-3H-spiro[benzo[h]quinazoline-5,1′-cyclohexan]-4(6H)-one] | 101% | 104% | 106% | 116% | 113% | 115% | 124% | 96 % control | 96 % control | 94 % control | 62 % control | 41 % control | 32 % control | 24 % control | – | – | – | – | –
C=CCn1c(SCC)nc2c(c1=O)C(C)(C)Cc1ccccc1-2 [1S-26137] | – | – | – | 89% | 91% | 98% | – | – | – | – | – | 20 % control | – | – | 89% | 21 % control | 22 % control | 19 % control | activity at 30 µg/mL (SK(+)GAS): 105%
C=CCn1c(SCc2ccc(OC)cc2)nc2c(c1=O)C1(CCCCC1)Cc1ccccc1-2 [CCG-102483, 3-allyl-2-(4-methoxybenzylthio)-3H-spiro[benzo[h]quinazoline-5,1′-cyclohexan]-4(6H)-one] | – | – | – | 104% | – | 115% | – | – | – | – | – | – | – | – | – | 119 % control | – | 80 % control | –
CCn1c(SCc2ccccc2)nc2c(c1=O)C1(CCCC1)Cc1ccccc1-2 [AK968] | – | – | – | – | 105% | 117% | 130% | – | – | – | – | 83 % control | 57 % control | 33 % control | 96% | – | 64 % control | 54 % control | activity at 30 µg/mL (SK(+)GAS): 112%; activity at 50 µg/mL (SK(+)GAS): 124%; activity at 60 µg/mL (SK(+)GAS): 123%; SK Expression (% control) (streptokinase (SK); compound conc. 50 μg/ml): 40 % control; SK Expression (% control) (streptokinase (SK); compound conc. 70 μg/ml): 45 % control
C=CCn1c(SCC(N)=O)nc2c(c1=O)C(C)(C)Cc1ccccc1-2 [CCG-203037, 2-(3-Allyl-5,5-dimethyl-4-oxo-3,4,5,6-tetrahydrobenzo[h]quinazolin-2-ylthio)acetamide] | 98% | 99% | 101% | 102% | 105% | 102% | 106% | 96 % control | 97 % control | 96 % control | 94 % control | 92 % control | 79 % control | 38 % control | – | – | – | – | –
C=CCn1c(SCCOC)nc2c(c1=O)C(C)(C)c1ccccc1-2 [CCG-203572, 3-allyl-2-(2-methoxyethylthio)-5,5-dimethyl-3H-indeno[1,2-d]pyrimidin-4(5H)-one] | 101% | 101% | 101% | 97% | 96% | 87% | 96% | 100 % control and 128 % control | 101 % control and 129 % control | 102 % control and 134 % control | 102 % control and 75 % control | – | – | – | 97% | 21 % control | 10 % control | 9 % control | GAS Growth (% control) (SK(+)GAS; compound conc. 0.3 μg/ml): 101 % control
C=CCn1c(SCCc2ccc(OC)cc2)nc2c(c1=O)C1(CCCCC1)Cc1ccccc1-2 [CCG-102489, 3-allyl-2-(4-methoxyphenethylthio)-3H-spiro[benzo[h]quinazoline-5,1′-cyclohexan]-4(6H)-one] | – | – | – | 106% | – | 114% | – | – | – | – | – | – | – | – | – | 91 % control | – | 79 % control | –
C=CCn1c(SCc2ccc(NC(C)=O)cc2)nc2c(c1=O)C1(CCCCC1)Cc1ccccc1-2 [CCG-102491, N-(4-((3-allyl-4-oxo-4,6-dihydro-3H-spiro[benzo[h]quinazoline-5,1′-cyclohexane]-2-ylthio)methyl)phenyl)acetamide] | – | – | – | 109% | – | 112% | – | – | – | – | – | – | – | – | – | 85 % control | – | 96 % control | –
C=CCn1c(SCc2cccc(OC)c2)nc2c(c1=O)C1(CCCCC1)Cc1ccccc1-2 [CCG-102485, 3-allyl-2-(3-methoxybenzylthio)-3H-spiro[benzo[h]quinazoline-5,1′-cyclohexan]-4(6H)-one] | – | – | – | 102% | – | 104% | – | – | – | – | – | – | – | – | – | 81 % control | – | 91 % control | –
C=CCn1c(SCCOC)nc2c(c1=O)CC(C)c1ccccc1-2 (centres unmarked) [CCG-203574, 3-allyl-2-(2-methoxyethylthio)-6-methyl-5,6-dihydrobenzo[h]quinazolin-4(3H)-one] | – | – | – | 102% | 85% | 68% | – | – | – | – | – | 10 % control | – | – | 95% | 80 % control | 6 % control | 6 % control | –
C=CCn1c(SCCN(C)C)nc2c(c1=O)C1(CCCCC1)Cc1ccccc1-2 [CCG-102495, 3-allyl-2-(2-(dimethylamino)ethylthio)-3H-spiro[benzo[h]quinazoline-5,1′-cyclohexan]-4(6H)-one] | – | – | – | – | 18% | – | – | – | – | – | – | – | – | – | – | – | 17 % control | – | –
C=CCn1c(SCCOC)nc2c(c1=O)C(C)(C)Cc1cc(OC)ccc1-2 [CCG-203576, 3-allyl-8-methoxy-2-(2-methoxyethylthio)-5,5-dimethyl-5,6-dihydrobenzo[h]quinazolin-4(3H)-one] | 102% | 101% | 100% | 99% | 99% | 101% | 105% | 99 % control and 93 % control | 99 % control and 98 % control | 99 % control and 89 % control | 100 % control and 61 % control | – | – | – | 98% | 30 % control | 19 % control | 11 % control | GAS Growth (% control) (SK(+)GAS; compound conc. 2.5 μg/ml): 100 % control
C=CCn1c(SCCOC)nc2c(c1=O)C1(CCCCC1)Cc1ccccc1-2 [CCG-102493, 3-allyl-2-(2-methoxyethylthio)-3H-spiro[benzo[h]quinazoline-5,1′-cyclohexan]-4(6H)-one] | 99% | 103% | 93% | 92% | – | – | 129% | 75 % control | 98 % control | 54 % control | 51 % control | – | 64 % control and 42 % control | 52 % control and 27 % control | 94% | 98 % control and 50 % control | – | – | activity at 30 µg/mL (SK(+)GAS): 110%; activity at 50 µg/mL (SK(+)GAS): 123%; activity at 60 µg/mL (SK(+)GAS): 125%; SK Expression (% control) (streptokinase (SK); compound conc. 2.5 μg/ml): 101 % control; SK Expression (% control) (streptokinase (SK); compound conc. 50 μg/ml): 49 % control; SK Expression (% control) (streptokinase (SK); compound conc. 70 μg/ml): 52 % control
C=CCn1c(SCC(=O)OCC)nc2c(c1=O)C(C)(C)Cc1ccccc1-2 [1S-30398] | – | – | – | 98% | 99% | 111% | – | – | – | – | – | 36 % control | – | – | 98% | 42 % control | 38 % control | 39 % control | –
C=CCn1c(SC)nc2c(c1=O)C1(CCCCC1)Cc1ccccc1-2 [CCG-102620, 3-Allyl-2-(methylthio)-3H-spiro[benzo[h]quinazoline-5,1′-cyclohexan]-4(6H)-one] | – | – | – | 104% | 104% | 115% | – | – | – | – | – | 50 % control | – | – | 106% | 62 % control | 33 % control | 27 % control | –
